ChEMBL document CHEMBL3797052 (Eur J Med Chem, 2016)

Test system: not listed separately
Assay: Antiproliferative activity against human DU145 cells assessed as growth inhibition after 48 hrs by sulforhodamine B assay
Type: functional
Settings: DU-145, 48 h

Structure (SMILES)	GI50	TGI
CNC(=O)c1cc(Oc2ccc(NC(=O)Nc3ccc(Cl)c(C(F)(F)F)c3)cc2)ccn1 [SORAFENIB]	3.16 µM	10 µM

Same assay, conditions: DU-145, 48 h, read-out: LC50 (the source's name)

Structure (SMILES)	CC50
CNC(=O)c1cc(Oc2ccc(NC(=O)Nc3ccc(Cl)c(C(F)(F)F)c3)cc2)ccn1 [SORAFENIB]	50.1 µM

Test system: not listed separately
Assay: Antiproliferative activity against human TK10 cells assessed as growth inhibition after 48 hrs by sulforhodamine B assay
Type: functional
Settings: TK-10, 48 h

Structure (SMILES)	GI50	TGI
CNC(=O)c1cc(Oc2ccc(NC(=O)Nc3ccc(Cl)c(C(F)(F)F)c3)cc2)ccn1 [SORAFENIB]	3.98 µM	10 µM

Same assay, conditions: TK-10, 48 h, read-out: LC50 (the source's name)

Structure (SMILES)	CC50
CNC(=O)c1cc(Oc2ccc(NC(=O)Nc3ccc(Cl)c(C(F)(F)F)c3)cc2)ccn1 [SORAFENIB]	50.1 µM

Test system: U-251
Assay: Antiproliferative activity against human U251 cells assessed as growth inhibition after 48 hrs by sulforhodamine B assay
Type: functional
Settings: U-251, 48 h

Structure (SMILES)	GI50	TGI
CNC(=O)c1cc(Oc2ccc(NC(=O)Nc3ccc(Cl)c(C(F)(F)F)c3)cc2)ccn1 [SORAFENIB]	2 µM	6.31 µM

Test system: not listed separately
Assay: Antiproliferative activity against human BT549 cells assessed as growth inhibition after 48 hrs by sulforhodamine B assay
Type: functional
Settings: BT-549, 48 h

Structure (SMILES)	GI50	TGI
CNC(=O)c1cc(Oc2ccc(NC(=O)Nc3ccc(Cl)c(C(F)(F)F)c3)cc2)ccn1 [SORAFENIB]	3.16 µM	5.01 µM

Same assay, conditions: BT-549, 48 h, read-out: LC50 (the source's name)

Structure (SMILES)	CC50
CNC(=O)c1cc(Oc2ccc(NC(=O)Nc3ccc(Cl)c(C(F)(F)F)c3)cc2)ccn1 [SORAFENIB]	15.8 µM

Test system: not listed separately
Assay: Antiproliferative activity against human HCC2998 cells assessed as growth inhibition after 48 hrs by sulforhodamine B assay
Type: functional
Settings: HCC 2998, 48 h

Structure (SMILES)	GI50	TGI
CNC(=O)c1cc(Oc2ccc(NC(=O)Nc3ccc(Cl)c(C(F)(F)F)c3)cc2)ccn1 [SORAFENIB]	3.16 µM	3.16 µM

Same assay, conditions: HCC 2998, 48 h, read-out: LC50 (the source's name)

Structure (SMILES)	CC50
CNC(=O)c1cc(Oc2ccc(NC(=O)Nc3ccc(Cl)c(C(F)(F)F)c3)cc2)ccn1 [SORAFENIB]	6.31 µM

Test system: MDA-MB-231
Assay: Antiproliferative activity against human MDA-MB-231 cells assessed as growth inhibition after 48 hrs by sulforhodamine B assay
Type: functional
Settings: MDA-MB-231, 48 h

Structure (SMILES)	GI50	TGI
CNC(=O)c1cc(Oc2ccc(NC(=O)Nc3ccc(Cl)c(C(F)(F)F)c3)cc2)ccn1 [SORAFENIB]	1.26 µM	3.98 µM

Same assay, conditions: MDA-MB-231, 48 h, read-out: LC50 (the source's name)

Structure (SMILES)	CC50
CNC(=O)c1cc(Oc2ccc(NC(=O)Nc3ccc(Cl)c(C(F)(F)F)c3)cc2)ccn1 [SORAFENIB]	20 µM

Test system: ACHN
Assay: Antiproliferative activity against human ACHN cells assessed as growth inhibition after 48 hrs by sulforhodamine B assay
Type: functional
Settings: not given

Structure (SMILES)	GI50	TGI
CNC(=O)c1cc(Oc2ccc(NC(=O)Nc3ccc(Cl)c(C(F)(F)F)c3)cc2)ccn1 [SORAFENIB]	2.51 µM	12.6 µM
